The results in this text go back to patent US20200055044A1, “METHODS AND SYSTEMS FOR MICRO PLATELET FUNCTION TESTING USING AN INTEGRATED MINIATURIZED PLATELET FUNCTION ANALYZER” (Atantares Corp., priority 2016, published 2020).

In the assay the test system is platelets in fresh anticoagulated human blood. Nature of the assay: impedance-based micro platelet function test with microfabricated 3D electrodes in a microfluidic channel. As to conditions: 100 μM ADP; human blood with Calcium Chloride and 10 μM PPACK; flow rate 25 μL/min; six frequencies 20 Hz to 2 MHz; logged for 2000 s; FIG. 16. Format: cell-based. From the text: Although not shown explicitly, electrodes of different heights (125 μm, 250 μm), diameters (100 μm, 250 μm, 500 μm), and gaps in-between electrodes (500 μm, 1000 μm) were fabricated using the same process. Pairs of 3D electrodes where each electrode comprises a number of electrically connected metal-coated cylindrical cores arranged in a grid were also fabricated. […] Wires soldered to the patterned metal pads on the substrates were used to connect the 3D electrodes to an Agilent E4980A LCR meter. FIG. 16 show a set 1600 of experimental data using electrodes fabricated according to the process discussed above. 1 mL of fresh anticoagulated human blood, obtained within 4 hrs of use, was mixed with 65 μL of 100 mg/mL Calcium Chloride and 10 μM of D-Phenylalanyl-prolyl-arginyl chloromethyl ketone (PPACK). […] The impedance of the electrodes was continuously monitored and logged at six different frequencies (20 Hz, 200 Hz, 1 kHz, 15 kHz, 200 kHz, 2 MHz) using a custom MATLAB program running on a computer interfaced to the LCR meter. […] The peak impedance values reached or the areas under the impedance-time curves or other measures from these curves may be analyzed and interpreted as indications of platelet activity in response to the modifying reagent added (e.g. ADP). […]

On to `Nc1ncnc2c1ncn2[C@@H]1O[C@H](COP(=O)(O)OP(=O)(O)O)[C@@H](O)[C@H]1O` [ADP, adenosine diphosphate], for which the “change in electrode impedance after addition of platelet activation reagent” value is reported as “increase in electrode impedances at all frequencies”.
